We go through seven compounds from US20120082976A1, “METHOD OF SCREENING FOR INSULIN SECRETION-POTENTIATING AGENTS” (KOBE UNIVERSITY, priority 2009, published 2012).

In test [1] the test system is Rap1. As to the kind of experiment: GTP-RAP1 pull-down assay in MIN6 cells. Format: cell-based. On the procedure: (§1) GTP-RAP1 pull-down assay was performed according to the method described in Shibasaki T. et al. Proc. Natl. Acad. Sci. USA 104, 19333-9 (2007). Namely, MIN6 cells which had been let stand for 30 minutes in HEPES-KRB buffer in advance were cultured for further 15 minutes in HEPES-KRB buffer containing an agent of interest and 2.8 mM glucose. Then, the cells were fractured, and to the cell lysate thus obtained was added glutathione resin which carried GST-Ra1GDS-RID bound to it (SIGMA). After 90 minutes of incubation at 4 deg C., the resin was separated by centrifugation, washed several times with HEPES-KRB buffer, and subjected to SDS-PAGE gel electrophoresis. After the SDS-PAGE gel electrophoresis, Western blotting was carried to transfer the protein onto PVDF membrane, and Rap1 transferred on the membrane was detected with anti-Rap1 antibody (Santa Cruz Biotechnology, Inc., USA).
Epac2 has the GEF activity and activates Rap1 by converting it to GTP-bound Rap1 through its binding to […]. This reaction constitute part of signal transmission for insulin secretion in beta-cells. Thus, it was examined whether or not Rap1 is activated with SU agents, using MIN6 cells, which originate from beta-cells. Activation of Rap1 was measured by determining GTP-bound Rap1, using GTP-RAP1 pull-down assay.

The test system of another test is pancreatic islets. As to the kind of experiment: Insulin secretion experiment, pancreatic islets of wild-type and Epac2-lacking mice. Format: cell-based, mouse. On the procedure:
Mouse pancreatic beta-cells were isolated from wild-type mice (C57BL/6) or Epac2-lacking mice, and cultured for two days. The mouse pancreatic beta-cells were let stand in HEPES-KRB buffer containing 2.8 mM glucose for 30 minutes. The cells then were dispensed to […] in such a manner that five pancreatic islets of a like size were contained in each well, and cultured for 15 minutes in 100 micro L HEPES-KRB buffer containing an agent of interest and 2.8 mM glucose. The amount of insulin released in the medium and that in the cells were measured using an insulin assay kit (Medical Biological Laboratories Co. Ltd.). The amount of secreted insulin was normalized by the amount of insulin in the cells.
The effect of SU agents on insulin secretion via Epac2 was examined in an insulin secretion experiment using pancreatic islets. First, pancreatic islets obtained from wild-type mice and Epac2-lacking mice were stimulated with glucose, and the amount of secreted insulin was determined.

For test [2] the following is noted: clinical report (Non-patent document 19); cited from earlier work.
The target of test [3] is T1, fluorescent-labeled mouse Epac2 (Mus musculus, UniProt Q9EQZ6).
T1 sequence (Q9EQZ6 1-1011): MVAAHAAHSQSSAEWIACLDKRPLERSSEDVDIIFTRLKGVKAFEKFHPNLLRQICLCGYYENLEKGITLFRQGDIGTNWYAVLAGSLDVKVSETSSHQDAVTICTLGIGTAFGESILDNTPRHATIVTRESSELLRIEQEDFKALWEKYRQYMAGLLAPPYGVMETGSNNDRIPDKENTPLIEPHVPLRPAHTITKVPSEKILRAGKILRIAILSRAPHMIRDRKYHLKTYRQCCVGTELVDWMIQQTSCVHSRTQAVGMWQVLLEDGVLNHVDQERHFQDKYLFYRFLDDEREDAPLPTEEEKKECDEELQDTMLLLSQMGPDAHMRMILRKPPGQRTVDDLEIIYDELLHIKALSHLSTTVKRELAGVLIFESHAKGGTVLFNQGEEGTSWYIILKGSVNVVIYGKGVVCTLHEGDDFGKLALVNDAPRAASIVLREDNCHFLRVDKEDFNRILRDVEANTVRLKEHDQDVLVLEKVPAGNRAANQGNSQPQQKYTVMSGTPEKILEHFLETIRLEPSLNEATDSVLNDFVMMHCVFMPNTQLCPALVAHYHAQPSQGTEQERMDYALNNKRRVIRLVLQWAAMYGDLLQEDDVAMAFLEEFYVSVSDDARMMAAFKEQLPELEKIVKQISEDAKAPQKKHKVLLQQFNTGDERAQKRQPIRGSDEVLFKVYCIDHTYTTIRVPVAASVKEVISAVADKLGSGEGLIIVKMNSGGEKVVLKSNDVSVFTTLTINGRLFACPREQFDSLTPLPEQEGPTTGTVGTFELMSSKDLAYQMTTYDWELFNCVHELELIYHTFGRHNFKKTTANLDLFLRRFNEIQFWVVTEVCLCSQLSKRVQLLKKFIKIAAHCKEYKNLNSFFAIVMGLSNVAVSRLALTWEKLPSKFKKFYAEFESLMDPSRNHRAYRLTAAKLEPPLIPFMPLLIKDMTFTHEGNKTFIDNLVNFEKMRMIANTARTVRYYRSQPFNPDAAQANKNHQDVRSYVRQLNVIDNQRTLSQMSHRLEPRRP
As to the kind of experiment: FRET dynamic analysis of fluorescent-labeled mouse Epac2 in COS-1 cells. Format: cell-based. Details: expressed in transfected cells; host or cells: COS-1 cells (A1). The note with it: COS-1 cells that did not express SUR1, in the presence of SU agent. On the procedure: Two days before the day for measurement, the cells were transformed with fluorescent-labeled mouse Epac2 expression vector and then cultured. On the day before the day for measurement, the cells were transferred onto the glass culture dishes of 25 mm in diameter, and culture was continued. About 48 hours after the transformation, the culture medium was replaced with HEPES-KRB buffer (HEPES buffer containing 133.4 mM NaCl, 4.7 mM KCl, 1.2 mM KH2PO4, 1.2 mM MgSO4, 2.5 mM CaCl2, 5.0 mM NaHCO3, 2.8 mM glucose, and 0.2% BSA (pH 7.4)). The cells were observed through a confocal microscope (FV1000, Olympus Corporation) equipped with the UPlanSApo objective lens (100*oil/1.40 NA) to set the focus of the lens on the cells, and excitation light with the wavelength of 440 nm was irradiated using 440 nm LD laser (FV5-LDPSU, Olympus Corporation) at the power of 0.5%. Fluorescent light emitted from thus excited fluorescent-labeled mouse Epac2 was observed through two fluorescence filters, 480DF30 (for 480 nm light) and 535DF25 (for 535 nm light) as dual images of the fluorescent light every 5 seconds for dynamic analysis of the emitted fluorescent light. The results of the dynamic analysis, after first calculating the ratio R in intensity of fluorescence at 535 nm to 480 nm at each measurement (ratio of intensity at 535 nm/intensity at 480 nm), were expressed in the value which was derived by dividing the ratio by the initial value R0 (ratio of intensity at 535 nm/intensity at 480 nm before addition of an agent), i.e., R/R0. All the observation was carried out at room temperature.

In test [4] the test system is Rap1. As to the kind of experiment: GTP-RAP1 pull-down assay in Epac2-lacking pancreatic beta-cells. Format: cell-based, mouse. The method, then: (§2) Pancreatic beta-cells lacking Epac2 were obtained according to the technique disclosed in Shibasaki T. et al. Proc. Natl. Acad. Sci. USA 104, 19333-9 (2007), by isolating from the mice which were bred after crossing Epac2-lacking mice with IT6 mice, in which SV40 large T […] is expressed under the control of human insulin gene promoter. The method for preparing IT6 mice is described in Miyazaki J, et al., Endocrinology, 127, 126-132 (1990). Further, MIN6 cells were prepared by the technique disclosed in Japanese patent application publication No. 2002-125661.
as §1
Then, using Epac2-lacking pancreatic beta-cells, examination was performed as to whether Rap1 was activated by SU agents. Activation of Rap1 was measured by determining the amount of GTP-bound Rap1 using GTP-RAP1 pull-down assay.

Test [5] deals with Rap1. As to the kind of experiment: GTP-RAP1 pull-down assay in Epac2-lacking pancreatic beta-cells transformed with mouse Epac2 expression vector. Format: cell-based. On the procedure:
as §2, §1

The next test addresses T2, mouse Epac2 (Mus musculus, UniProt Q9EQZ6).
T2 construct: expressed in transfected cells; host or cells: COS-1 cells
T2 sequence (Q9EQZ6 1-1011): T1 sequence (Q9EQZ6 1-1011)
As to the kind of experiment: Sulfonylurea binding experiment with tritium-labeled glibenclamide in COS-1 cells transformed with mouse Epac2 expression vector. An excerpt:
COS1 cells were transformed with mouse Epac2 expression vector. […] The membrane was washed four times with the same buffer which had been ice cooled, and then measured for radioactivity on a liquid scintillation counter.

Test [6] in a line: Oral glucose tolerance test in wild-type and Epac2-lacking mice. Format: in vivo, mouse. Particulars: oral 1.5 g/kg glucose plus 100 mg/kg tolbutamide. On the procedure:
Peripheral blood was sampled at a predetermined point of time, and serum insulin concentration and blood glucose concentration were measured with an ELISA kit (mftd. by Morinaga) and Antisense III glucose analysis device (Bayer Yakuhin, Ltd.), respectively.
Next, glucose was administered together with tolbutamide, and measurement was conducted in the same manner.

For test [7], the target named is T1, fluorescent-labeled mouse Epac2. As to the kind of experiment: FRET dynamic analysis of fluorescent-labeled mouse Epac2 in MIN6 cells. Format: cell-based. Details: expressed in transfected cells; host or cells: MIN6 cells (A3). Particulars: in the presence of SU agent. The method, then: All the observation was carried out at room temperature.
The mark [8] stands for this setting: concentration-dependent, 15 minutes, 2.8 mM glucose.

The structures appear in SMILES notation.

As to `Cc1ccc(S(=O)(=O)NC(=O)NN2CC3CCCC3C2)cc1` (stereo not shown) [gliclazide], the “amount of GTP-bound Rap1 (activation of Rap1)” value (from here on “amount of GTP-bound Rap1”) with Rap1 [1] (setting [8]) was “no effect on the amount of GTP-bound Rap1”. For the same compound, in the test on pancreatic islets (10 nM), the “insulin secretion, islets from Epac2-lacking mice compared with wild-type mice” value (shortened to “insulin secretion … compared with wild-type mice”) is “no significant difference”. Also, the “glycemic control in a patient with neonatal diabetes” value in test [2] was “not effective”. Also, the “change in R/R0 value (FRET)” value in [3] is listed as “no change in R/R0 value”.

On to `Cc1cnc(C(=O)NCCc2ccc(S(=O)(=O)NC(=O)NC3CCCCC3)cc2)cn1` [glipizide], for which the “amount of GTP-bound Rap1” value in the test with Rap1 [1] (setting [8]) is “increase the amount of GTP-bound Rap1”. The “activation of Rap1” value with Rap1 [4] is listed as “activated no Rapt”; with Rap1 [5], “found to activate Rap1”. The “change in R/R0 value (FRET)” value in [3] is “decrease in R/R0”.

For `CC(=O)c1ccc(S(=O)(=O)NC(=O)NC2CCCCC2)cc1` [acetohexamide], the “amount of GTP-bound Rap1” value in the test on Rap1 [1] (setting [8]) was “increase the amount of GTP-bound Rap1”. Moreover, the entries for the “activation of Rap1” value in the test on Rap1 [4] and with Rap1 [5] were “activated no Rapt” and “found to activate Rap1”, respectively. In addition, the “change in R/R0 value (FRET)” value in test [3] was “decrease in R/R0”.

Consider `CC(C)[C@H]1CC[C@H](C(=O)N[C@H](Cc2ccccc2)C(=O)O)CC1` [nateglinide], for which the “activation of Rap1” value in the test on Rap1 [5] is “did not activate Rap1”. In test [3], the “change in R/R0 value (FRET)” value was “no change in R/R0 value”.

Turning to `CCCNC(=O)NS(=O)(=O)c1ccc(Cl)cc1` [chlorpropamide], the “amount of GTP-bound Rap1” value with Rap1 [1] (setting [8]) is recorded as “increase the amount of GTP-bound Rap1”. The “activation of Rap1” value is “activated no Rapt” in the test on Rap1 [4] and “found to activate Rap1” in the test on Rap1 [5]. Moreover, the “change in R/R0 value (FRET)” value in test [3] was “decrease in R/R0”.

Regarding `CCCCNC(=O)NS(=O)(=O)c1ccc(C)cc1` [tolbutamide], the IC50 on mouse Epac2 was found to be 240 µM. For the same compound, the “activation of Rap1” value was “activated no Rapt” with Rap1 [4] and “found to activate Rap1” in the test with Rap1 [5]. Further, the “insulin secretion … compared with wild-type mice” value with pancreatic islets (100 nM) is “markedly low insulin secretion”. For the same compound, in test [6], the “blood glucose concentration, Epac2-lacking mice compared with wild-type mice” value is reported as “high in the Epac2-lacking mice compared with the wild-type mice”. Besides, in test [6], the “serum insulin concentration, Epac2-lacking mice compared with wild-type mice” value was “low in the Epac2-lacking mice compared with the wild-type mice”. Besides, the “change in R/R0 value (FRET)” value in test [7] is on record as “concentration-dependent decrease in R/R0 value”; in [3], “decrease in R/R0”.

In turn, `COc1ccc(Cl)cc1C(=O)NCCc1ccc(S(=O)(=O)NC(=O)NC2CCCCC2)cc1` [glibenclamide] displayed an IC50 on mouse Epac2 of 0.025 µM. The “amount of GTP-bound Rap1” value with Rap1 [1] (setting [8]) was “increase the amount of GTP-bound Rap1”; with Rap1 [1] (concentrations higher than 100 nM), “failed to increase it”. Besides, the “activation of Rap1” value in the test on Rap1 [4] is recorded as “activated no Rapt”; in the test on Rap1 [5] it was “found to activate Rap1”. Besides, in the test with pancreatic islets (10 nM), the “insulin secretion … compared with wild-type mice” value is given as “markedly low insulin secretion”. Also, the figures for the “change in R/R0 value (FRET)” value in [7] and in test [3] were “concentration-dependent decrease in R/R0 value” and “decrease in R/R0”, respectively.
